The source of these data is US10829473B2, “Modulators of the cystic fibrosis transmembrane conductance regulator protein and methods of use” (AbbVie Overseas S.Á.R.L., priority 2017, dated 2020).

Read-outs that look alike come from different tables or passages of the source. Where only a bound is given, the exact number is not on record here.

What is called EC50 is the concentration that produces a half-maximal response.

This assay deals with T1, F508delCFTR (Homo sapiens, UniProt P13569, DEL508-508).
T1 construct: expressed in transfected cells; host or cells: CFBE41o- human lung derived epithelial cells (CFBE41o-F508delCFTR-HRP), doxycycline-inducible
The assay is described as follows: Cell Surface Expression-Horse Radish Peroxidase (CSE-HRP) Assay.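 As to EC50 (with co-corrector): co-corrector chromenyl benzoic acid corrector at 2 or 3 µM.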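 As to Maximum % activity (without co-corrector): % of on-plate positive control chromenyl benzoic acid corrector at 2 or 3 µM.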 The settings on record: for Emax: read-out: Maximum % activity (without co-corrector). Type of assay: cell-based. The procedure, abridged:
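Corrector compounds were given as 8-point 3-fold series from 20 or 30 μM, with or without a 2 μM co-corrector, for 18-24 h at 33 °C. Surface HRP was read by luminol luminescence as % of positive control; variable-Hill-slope sigmoidal fitting gave EC50 from triplicate plates.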

[1] abbreviates: test compound alone, without co-corrector, read-out: EC50 (without co-corrector).
Setting [2] is: with co-corrector, maximum at any tested concentration.
The mark [3] stands for this setting: with co-corrector, read-out: EC50 (with co-corrector).
[4] abbreviates: without co-corrector, maximum at any tested concentration.
Setting [5] is: test compound with co-corrector, maximum at any tested concentration.
Where [6] appears, read: test compound with co-corrector, read-out: EC50 (with co-corrector).
The mark [7] stands for this setting: test compound without co-corrector, maximum at any tested concentration.
The mark [8] stands for this setting: test compound without co-corrector, read-out: EC50 (without co-corrector).

T1 sequence (P13569 with tags, fused parts or gaps DEL508-508): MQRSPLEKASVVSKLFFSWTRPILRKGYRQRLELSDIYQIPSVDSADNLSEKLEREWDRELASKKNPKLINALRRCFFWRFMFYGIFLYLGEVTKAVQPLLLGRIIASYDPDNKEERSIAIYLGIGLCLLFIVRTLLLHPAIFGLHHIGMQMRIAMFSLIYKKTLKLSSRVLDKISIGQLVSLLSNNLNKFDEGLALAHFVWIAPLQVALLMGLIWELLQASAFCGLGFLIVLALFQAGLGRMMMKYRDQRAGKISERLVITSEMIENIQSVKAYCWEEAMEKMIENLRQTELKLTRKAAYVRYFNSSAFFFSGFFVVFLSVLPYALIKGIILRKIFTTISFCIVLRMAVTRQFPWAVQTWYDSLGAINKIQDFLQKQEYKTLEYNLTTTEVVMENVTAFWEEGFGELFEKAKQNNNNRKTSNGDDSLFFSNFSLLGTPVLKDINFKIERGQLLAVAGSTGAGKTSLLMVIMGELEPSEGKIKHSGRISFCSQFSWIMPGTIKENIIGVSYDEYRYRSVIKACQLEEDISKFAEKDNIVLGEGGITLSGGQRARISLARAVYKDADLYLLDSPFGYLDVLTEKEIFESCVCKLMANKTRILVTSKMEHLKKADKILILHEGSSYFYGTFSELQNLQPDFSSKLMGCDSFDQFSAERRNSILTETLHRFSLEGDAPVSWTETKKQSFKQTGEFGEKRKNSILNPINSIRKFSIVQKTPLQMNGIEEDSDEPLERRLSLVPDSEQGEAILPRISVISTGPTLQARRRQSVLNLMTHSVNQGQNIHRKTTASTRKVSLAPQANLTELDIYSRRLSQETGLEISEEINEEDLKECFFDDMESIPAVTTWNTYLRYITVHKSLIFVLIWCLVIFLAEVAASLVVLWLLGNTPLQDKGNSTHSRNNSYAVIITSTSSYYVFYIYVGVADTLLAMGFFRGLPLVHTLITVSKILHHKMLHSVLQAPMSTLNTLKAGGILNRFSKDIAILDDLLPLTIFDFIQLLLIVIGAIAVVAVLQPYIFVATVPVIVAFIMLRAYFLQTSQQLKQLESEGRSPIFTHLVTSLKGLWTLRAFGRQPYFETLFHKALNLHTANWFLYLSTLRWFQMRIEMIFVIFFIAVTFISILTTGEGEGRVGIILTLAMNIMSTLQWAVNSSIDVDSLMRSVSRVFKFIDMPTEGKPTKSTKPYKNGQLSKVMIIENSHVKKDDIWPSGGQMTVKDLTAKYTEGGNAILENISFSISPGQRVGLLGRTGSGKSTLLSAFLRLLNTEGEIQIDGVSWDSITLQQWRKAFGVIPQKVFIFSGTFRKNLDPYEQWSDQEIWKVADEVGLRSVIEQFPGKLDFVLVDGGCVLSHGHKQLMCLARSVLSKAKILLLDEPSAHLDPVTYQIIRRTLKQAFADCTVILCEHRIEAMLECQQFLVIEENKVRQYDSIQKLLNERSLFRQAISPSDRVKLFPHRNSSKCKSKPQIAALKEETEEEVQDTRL

Take `COc1ccc(C)c(OC)c1C1(C(=O)NS(=O)(=O)c2cccc3ncccc23)CC1` [Example I-41, 1-(2,6-dimethoxy-3-methylphenyl)-N-(quinoline-5-sulfonyl)cyclopropane-1-carboxamide]: the concentration giving a half-maximal response (EC50) by setting is: under setting [1], < 3 µM; under setting [3], < 3 µM. Moreover, the “Maximum % activity (with co-corrector)” value under setting [2] was “+++ (≥350)”. The Emax under setting [4] is > 150%.
Turning to `Cc1ccc2c(S(=O)(=O)NC(=O)C3(c4cc(C5CCC5)cnc4N4CCC(OC(C)C)CC4)CC3)cccc2n1` [Example GI-113, 1-(5-cyclobutyl-2-{4-[(propan-2-yl)oxy]piperidin-1-yl}pyridin-3-yl)-N-(2-methylquinoline-5-sulfonyl)cyclopropane-1-carboxamide], the “Maximum % activity (with co-corrector)” value under setting [5] is given as “+++ (≥350)”. In addition, the EC50 under setting [6] was < 3 µM and the concentration for a half-maximal effect (EC50) under setting [8] was < 3 µM. Under setting [7], the Emax is > 150%.
Take `COc1ncc(C(F)(F)F)cc1C1(C(=O)NS(=O)(=O)c2cccc3ncn(C)c23)CC1` [Example III-96, 1-[2-methoxy-5-(trifluoromethyl)pyridin-3-yl]-N-(1-methyl-1H-benzimidazole-7-sulfonyl)cyclopropane-1-carboxamide]: the EC50 was 3 to 10 µM under setting [1] and 3 to 10 µM under setting [3]. In addition, the “Maximum % activity (with co-corrector)” value under setting [2] is listed as “+++ (≥350)”. The Emax under setting [4] lay in the range of 50 to 150%.
With `O=C(NS(=O)(=O)c1cccc2ncccc12)C1(c2cc(C3CCC3)cnc2N2CCCC2)CC1` [Example GI-28, 1-[5-cyclobutyl-2-(pyrrolidin-1-yl)pyridin-3-yl]-N-(quinoline-5-sulfonyl)cyclopropane-1-carboxamide], the concentration for a half-maximal effect (EC50) runs as follows: under setting [1], 3 to 10 µM; under setting [3], < 3 µM. For the same compound, the “Maximum % activity (with co-corrector)” value under setting [2] was “+++ (≥350)”. Moreover, the Emax under setting [4] was > 150%.
As for `CCc1ccc(OC)c(C2(C(=O)NS(=O)(=O)c3cccc4nc(C)ccc34)CC2)c1` [Example I-84, 1-(5-ethyl-2-methoxyphenyl)-N-(2-methylquinoline-5-sulfonyl)cyclopropane-1-carboxamide], the EC50 under setting [1] is < 3 µM and the EC50 under setting [3] was < 3 µM. For the same compound, the “Maximum % activity (with co-corrector)” value under setting [2] is reported as “+++ (≥350)”. For the same compound, the Emax under setting [4] is > 150%.
On to `O=C(NS(=O)(=O)c1cccc(OC(F)(F)F)c1)C1(c2ccc(Cl)cc2Cl)CC1` [Example III-64, 1-(2,4-dichlorophenyl)-N-[3-(trifluoromethoxy)benzene-1-sulfonyl]cyclopropane-1-carboxamide], for which the EC50 under setting [1] is > 10 µM and the EC50 under setting [3] was > 10 µM. For the same compound, the “Maximum % activity (with co-corrector)” value under setting [2] is on record as “+ (<150)”. For the same compound, the Emax under setting [4] was < 50%.
`COc1ccc(C)c(C)c1C1(C(=O)NS(=O)(=O)c2cccc3ncccc23)CC1` [Example I-47, 1-(6-methoxy-2,3-dimethylphenyl)-N-(quinoline-5-sulfonyl)cyclopropane-1-carboxamide]: the EC50 by setting is: under setting [1], < 3 µM; under setting [3], < 3 µM. For the same compound, the “Maximum % activity (with co-corrector)” value under setting [2] is reported as “+++ (≥350)”. Moreover, the Emax under setting [4] was > 150%.
Consider `Cc1ccc(OC(F)F)c(C2(C(=O)NS(=O)(=O)c3cccc4ncccc34)CC2)c1` [Example I-100, 1-[2-(difluoromethoxy)-5-methylphenyl]-N-(quinoline-5-sulfonyl)cyclopropane-1-carboxamide], for which the 50% effective concentration (EC50) was < 3 µM under setting [1] and < 3 µM under setting [3]. Also, under setting [2], the “Maximum % activity (with co-corrector)” value is “+++ (≥350)”. The Emax under setting [4] was > 150%.
For the compound `O=C(NS(=O)(=O)c1cc([N+](=O)[O-])ccc1Cl)C1(c2cccc(Cl)c2)CC1` [Example III-55, N-(2-chloro-5-nitrobenzene-1-sulfonyl)-1-(3-chlorophenyl)cyclopropane-1-carboxamide], the EC50 runs as follows: under setting [1], > 10 µM; under setting [3], > 10 µM. Moreover, the “Maximum % activity (with co-corrector)” value under setting [2] is given as “+ (<150)”. Also, the Emax under setting [4] was < 50%.
With `COC(=O)c1ccc(OC)c(C2(C(=O)NS(=O)(=O)c3cccc4ccccc34)CC2)c1` [II-32], the Emax is > 150%. Further, under setting [1], the EC50 was in the range of 3 to 10 µM. Also, the “Maximum % activity (with co-corrector)” value under setting [2] is listed as “+++ (≥350)”. The EC50 under setting [3] was < 3 µM.
Take `Cc1ccc(O[C@H]2CCOC2)c(C2(C(=O)NS(=O)(=O)c3cccc4ncccc34)CC2)c1` [II-117]: the EC50 is, setting by setting: under setting [1], 3 to 10 µM; under setting [3], < 3 µM. For the same compound, under setting [2], the “Maximum % activity (with co-corrector)” value was “+++ (≥350)”. The Emax under setting [4] was > 150%.
Turning to `CCOc1ccc(C)cc1C1(C(=O)NS(=O)(=O)c2cccc3ncccc23)CC1` [Example I-82, 1-(2-ethoxy-5-methylphenyl)-N-(quinoline-5-sulfonyl)cyclopropane-1-carboxamide], the EC50 under setting [1] was < 3 µM and the EC50 under setting [3] was < 3 µM. For the same compound, the “Maximum % activity (with co-corrector)” value under setting [2] is recorded as “+++ (≥350)”. In addition, the Emax under setting [4] was > 150%.
As to `COc1cnc(OC(C)C)c(C2(C(=O)NS(=O)(=O)c3cccc4nc(C)ccc34)CC2)c1` [Example GI-76, 1-{5-methoxy-2-[(propan-2-yl)oxy]pyridin-3-yl}-N-(2-methylquinoline-5-sulfonyl)cyclopropane-1-carboxamide], the “Maximum % activity (with co-corrector)” value under setting [5] is “+++ (≥350)”. Further, the EC50 reads like this: under setting [6], < 3 µM; under setting [8], < 3 µM. Under setting [7], the Emax is > 150%.
On to `CCc1ccc(OC)c(C2(C(=O)NS(=O)(=O)c3cccc4nc(N)ccc34)CC2)c1` [II-71], for which the EC50 under setting [1] is < 3 µM and the EC50 under setting [3] was < 3 µM. In addition, the “Maximum % activity (with co-corrector)” value under setting [2] is given as “+++ (≥350)”. Also, the Emax under setting [4] is > 150%.
Regarding `O=C(NS(=O)(=O)c1cccc2ccccc12)C1(c2ccc(C(F)(F)F)nc2C2CCC2)CC1` [Example GI-11, 1-[2-cyclobutyl-6-(trifluoromethyl)pyridin-3-yl]-N-(naphthalene-1-sulfonyl)cyclopropane-1-carboxamide], the EC50 is, setting by setting: under setting [1], < 3 µM; under setting [3], < 3 µM. Besides, under setting [2], the “Maximum % activity (with co-corrector)” value was “+++ (≥350)”. In addition, under setting [4], the Emax was > 150%.
`CC(C)COc1ncc(N2CCCC2)cc1C1(C(=O)NS(=O)(=O)c2cccc3ncccc23)CC1` [Example GI-68, 1-[2-(2-methylpropoxy)-5-(pyrrolidin-1-yl)pyridin-3-yl]-N-(quinoline-5-sulfonyl)cyclopropane-1-carboxamide]: the “Maximum % activity (with co-corrector)” value under setting [5] is “+++ (≥350)”. Moreover, the 50% effective concentration (EC50) by setting is: under setting [6], < 3 µM; under setting [8], < 3 µM. Also, under setting [7], the Emax is > 150%.
As for `Cc1ccc2c(S(=O)(=O)NC(=O)C3(c4cc(N5CCCC5)cnc4OCC(C)C)CC3)cccc2n1` [Example GI-69, 1-[2-(2-methylpropoxy)-5-(pyrrolidin-1-yl)pyridin-3-yl]-N-(2-methylquinoline-5-sulfonyl)cyclopropane-1-carboxamide], under setting [5], the “Maximum % activity (with co-corrector)” value is given as “+++ (≥350)”. In addition, the concentration for a half-maximal effect (EC50) by setting is: under setting [6], < 3 µM; under setting [8], < 3 µM. Further, the Emax under setting [7] is > 150%.
With `Cc1ccc2c(S(=O)(=O)NC(=O)C3(c4cc(C5CCC5)cnc4OC(C)C)CC3)cccc2n1` [Example GI-23, 1-{5-cyclobutyl-2-[(propan-2-yl)oxy]pyridin-3-yl}-N-(2-methylquinoline-5-sulfonyl)cyclopropane-1-carboxamide], the EC50 under setting [1] is < 3 µM and the EC50 under setting [3] was < 3 µM. Moreover, the “Maximum % activity (with co-corrector)” value under setting [2] is “+++ (≥350)”. The Emax under setting [4] is > 150%.
